Experimental findings from ChEMBL document CHEMBL4811265, “Structural understanding of 5-(4-hydroxy-phenyl)-N-(2-(5-methoxy-1H-indol-3-yl)-ethyl)-3-oxopentanamide as a neuroprotectant for Alzheimer's disease” (Bioorg Med Chem Lett, 2021) are described below.

Bounds are passed on as bounds.

A short description of the assay: Neuroprotective activity in human MC65 cells cultured in TC-deficient medium assessed as inhibition of TC-deficiency induced cell death by measuring increase in cell viability measured after 72 hrs by MTT assay. Type of assay: functional, cell-based. The conditions noted are these: MC65, 72 h. (Formazan colour is commonly taken as a measure of viable cells.)
For orientation: EC50 means the concentration giving half of the maximal effect. `C#CCOc1ccc2[nH]cc(CCNC(=O)CC(=O)CCc3ccc(O)cc3)c2c1`: the EC50 stood at 0.032 µM. As for `C#CCOc1ccc2[nH]cc(CCNC(=O)CC3(CCc4ccc(O)cc4)N=N3)c2c1`, the figure is 0.0261 µM. Consider `COc1ccc2[nH]cc(CCNC(=O)CC(=O)CCc3ccc(O)cc3)c2c1`, for which the EC50 came to 0.0326 µM. On to `COc1ccc2[nH]cc(CCNC(=O)C3CCC/C(=C\c4ccc(O)cc4)C3=O)c2c1` (racemic), for which the half-maximal effective concentration (EC50) turned out to be 0.224 µM.

On to `COc1ccc(CCC(=O)CC(=O)NCCc2c[nH]c3ccc(OC)cc23)cc1`, for which the 50% effective concentration (EC50) stood at 0.49 µM. For `COc1ccc2[nH]cc(CCNC(=O)C3CC/C(=C\c4ccc(O)cc4)C3=O)c2c1` (racemic), the EC50 is 0.127 µM. For `COc1ccc2[nH]cc(CCNC(=O)CC(=O)/C=C/c3ccc(N(C)C)cc3)c2c1`, the 50% effective concentration (EC50) was 0.976 µM. Consider `COc1ccc2[nH]cc(CCNC(=O)CC(=O)/C=C/c3cccnc3)c2c1`, for which the EC50 was over 3 µM. For `COc1ccc2[nH]cc(CCNC(=O)CC(=O)/C=C/c3ccco3)c2c1`, the EC50 is 0.228 µM. Consider `O=C(CC(O)CCc1ccc(O)cc1)NCCc1c[nH]c2ccc(O)cc12` (racemic), for which the EC50 is 0.0092 µM. `COc1ccc2[nH]cc(CCNC(=O)CC(=O)/C=C/c3ccc(F)cc3)c2c1`: the EC50 stood at 0.0328 µM.

Turning to `COc1ccc2[nH]cc(CCNC(=O)CC(=O)/C=C/c3ccoc3)c2c1`, the 50% effective concentration (EC50) is 0.336 µM. Turning to `COc1ccc2[nH]cc(CCNC(=O)C3CCC(Cc4ccc(O)cc4)C3=O)c2c1` (racemic), the EC50 was over 3 µM. For `COc1ccc2[nH]cc(CCNC(=O)C3CCCC(Cc4ccc(O)cc4)C3=O)c2c1` (racemic), the concentration giving a half-maximal response (EC50) was over 3 µM.

With `COc1ccc2[nH]cc(CCNC(=O)CC(=O)/C=C/c3ccc4c(c3)OCO4)c2c1`, the EC50 is over 3 µM. Take `[N-]=[N+]=Nc1ccc2[nH]cc(CCNC(=O)CC(=O)CCc3ccc(O)cc3)c2c1`: the EC50 is 0.0165 µM. As for `COc1ccc2[nH]cc(CCNC(=O)CC(=O)CCc3ccc(F)cc3)c2c1`, the figure is 0.033 µM. Consider `O=C(/C=C/c1ccc(O)cc1)CC(=O)NCCc1c[nH]c2ccc(O)cc12`, for which the EC50 stood at 0.178 µM. The same measure for `Nc1ccc2[nH]cc(CCNC(=O)CC(=O)CCc3ccc(O)cc3)c2c1`: over 3 µM; for `COc1ccc2[nH]cc(CCNC(=O)CC(=O)/C=C/c3ccc(O)cc3)c2c1`: 0.029 µM; for `O=C(CCc1ccc(O)cc1)CC(=O)NCCc1c[nH]c2ccc(O)cc12`: 0.363 µM. In the case of `COc1ccc2[nH]cc(CCNC(=O)CC3(CCc4ccc(O)cc4)N=N3)c2c1`, the EC50 amounted to 0.0562 µM.

Regarding `COc1ccc(CCC2(CC(=O)NCCc3c[nH]c4ccc(OC)cc34)N=N2)cc1`, the EC50 is over 3 µM. Take `O=C(CCc1ccc(O)cc1)CC(=O)NCCc1c[nH]c2ccc([N+](=O)[O-])cc12`: the half-maximal effective concentration (EC50) worked out at 0.5 µM. Consider `COc1ccc2[nH]cc(CCNC(=O)CC(=O)/C=C/c3ccncc3)c2c1`, for which the concentration for a half-maximal effect (EC50) was over 3 µM.
